Assay [1] has as its system Karpas422 cells. The assay is described as follows: Cell proliferation inhibition test (CCK8), Karpas422. Particulars: Homo sapiens, KARPAS-422, 288 h; B-cell non-Hodgkin's lymphoma cell line, 12 days incubation, CCK8 cell viability. The class given is cell-based. The text has this:
(§1) Cell Proliferation Inhibition Test
(§2) Karpass 422 and WSUDLCL-2 cells were purchased from the European Collection of Authenticated Cell Cultures (ECACC) and the German Collection of Microorganisms and Cell Cultures (Deutsche Sammlung von Mikroorganismen und Zellkulturen, DSMZ). RMBI 1640 medium, penicillin-streptomycin, heat-inactivated fetal bovine senum (FBS), and horse serum were purchased from ThermoFisher (Waltham MA, USA). Corning 96-well cell culture plate was purchased from ThermoFisher (Waltham MA, USA).
(§3) To evaluate the inhibitory effect of the synthesized compounds on the proliferation of B-cell non-Hodgkin's lymphoma Karpass 422 and WSUDLCL-2 cells, exponentially growing cells were inoculated in RMPI1640 medium containing 20% and 10% horse serum and 1% penicillin-streptomycin at concentrations of 2000 cells/ml and 3000 cells/ml, respectively, in 96-well plates, 100 μL per well, and incubated overnight in an incubator at 37° C. and 5% CO2. The compound was prepared in DMSO into a 10-point, 3-fold series diluent, starting at 6 mM. 1 μL of DMSO solution from a compound reserve plate was added to 99 μL of cell culture medium (the final maximum concentration of the compound in the assay was 30 μM and the final concentration of DMSO was 0.5%). 100 μL of compound solution from the medium was added to each well of the Karpass422 cell plate. After the addition of the compound solution, the assay plate was incubated at 37° C. and 5% CO2 for 12 days. During the incubation, the cell culture medium was replaced with the cell culture medium having the newly dissolved test compound every 4 days. After 100 μL of the old medium was removed from the cell plate, 100 μL of medium having dissolved test compound was added to the assay plate, which was prepared by adding 1 μL of compound DMSO series solution to 199 μL of cell medium with the same layout as the original preparation layout. Cell viability was measured by using cell count kit-8 (CCK8) purchased from Beyotime Biotechnology (Shanghai, China). 20 μL of CCK8 reagent was added to each well of the assay plate and incubated at 37° C. for 2 hours. The O.D. at 450 nm was read by using a FlexStation 3 microplate reader (Molecular Devices, Sunnyvale, CA 94089 USA).

The test system of assay [2] is WSUDLCL-2 cells. Put plainly: Cell proliferation inhibition test (CCK8), WSUDLCL-2. The class given is cell-based. The conditions noted are these: Homo sapiens, WSUDLCL2, 288 h; B-cell non-Hodgkin's lymphoma cell line, 12 days incubation, CCK8 cell viability.
Source text: as §1, §2, §3

Assay [3] has as its target T1, Wild-type PRC2/EZH2 (Homo sapiens, UniProt Q15910).
T1 construct: purchased Reaction Biology (Malvern, PA); host or cells: insect cell/baculovirus expression system
Put plainly: PRC2/EZH2 HTRF enzyme inhibition test. In kind it is biochemical. Particulars: human recombinant PRC2 complex, 30 μM SAM, 10 μM biotin-H3 (21-44) peptide.
Source text: The human recombinant PRC2 complex was composed of human recombinant EZH2, AEBP2, EED, RbAp48, and SUZ12, co-expressed in an insect cell/baculovirus expression system, and purchased from Reaction Biology (Malvern, PA). […] The HTRF detection kit including monoclonal antibody histone H3K27Mel-Eu (K) fluorescent donor and streptavidin labeled XL665 fluorescent receptor was purchased from Cisbio (Shanghai, China). S-adenosylmethionine (SAM), Tween 20, dimethyl sulfoxide (DMSO), and Tris buffer at the highest purity level were purchased from Sigma.
The experiment was carried out in a buffer consisting of 50 mM Tris, pH 9.0, 0.1% BSA, and 0.01% Tween 20, and 1 mM DTT was added before the experiment started. 2.5 μL of a solution of a compound in 4% DMSO and 5 μL of PRC2/SAM mixed solution pre-incubated for 30 minutes were added to the buffer, and then the buffer was added to a white low-volume 384-well microtiter plate. The mixture solution was gently shaken and incubated at room temperature for 15 minutes. 2.5 μL of biotin-H3 (21-44) peptide substrate solution was added to the buffer to initiate the methyl transfer reaction. The final concentrations of PRC2, SAM, biotin-H3 peptide substrate, and DMSO were 2 ng/L, 30 μM, 10 μM, and 1%, respectively. The reaction was gently shaken at room temperature away from light for 120 minutes, and then 10 μL of monoclonal antibody histone H3K27Mel-Eu (K) fluorescent donor and streptavidin-labeled XL665 fluorescent receptor in the detection buffer from the manufacturer were added to the reaction mixture for incubation for 60 minutes. The final concentrations of these two reagents were 50 ng/ml and 62.5 nM, respectively. The plate was read on an Envision multi-template reader from PerkinElmer (Waltham MA USA) with an excitation wavelength of 320 nm and emission wavelengths of 665 and 615 nm. The IC50 value of the inhibitor was obtained by fitting an S-shaped dose-response curve (variable slope, four parameters) of fluorescence intensities at 665 nm and 615 nm over inhibitor concentrations by using Prism 7 (La Jolla, CA).

pIC50: −log10 of the molar value.

T1 sequence (Q15910 whole entry): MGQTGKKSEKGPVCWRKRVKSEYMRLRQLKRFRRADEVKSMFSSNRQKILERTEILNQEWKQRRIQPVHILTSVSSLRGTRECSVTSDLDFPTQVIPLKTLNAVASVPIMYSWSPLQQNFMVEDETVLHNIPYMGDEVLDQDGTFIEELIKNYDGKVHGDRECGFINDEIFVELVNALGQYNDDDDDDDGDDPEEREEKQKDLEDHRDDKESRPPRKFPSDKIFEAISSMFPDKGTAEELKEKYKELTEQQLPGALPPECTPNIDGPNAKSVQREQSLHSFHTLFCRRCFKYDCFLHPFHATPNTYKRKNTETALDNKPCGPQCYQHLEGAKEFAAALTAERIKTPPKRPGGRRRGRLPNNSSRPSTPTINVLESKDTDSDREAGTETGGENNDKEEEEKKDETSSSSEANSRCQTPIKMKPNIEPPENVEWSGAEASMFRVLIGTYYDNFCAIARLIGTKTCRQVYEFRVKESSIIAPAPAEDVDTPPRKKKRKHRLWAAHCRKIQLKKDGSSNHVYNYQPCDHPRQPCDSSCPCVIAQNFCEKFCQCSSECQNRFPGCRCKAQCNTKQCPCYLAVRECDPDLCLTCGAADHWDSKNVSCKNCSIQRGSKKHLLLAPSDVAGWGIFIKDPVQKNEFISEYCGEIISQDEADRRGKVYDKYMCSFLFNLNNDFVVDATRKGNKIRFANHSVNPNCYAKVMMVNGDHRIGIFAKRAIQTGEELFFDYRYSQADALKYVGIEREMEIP
T1 sequence (Q6ZN18 whole entry partner): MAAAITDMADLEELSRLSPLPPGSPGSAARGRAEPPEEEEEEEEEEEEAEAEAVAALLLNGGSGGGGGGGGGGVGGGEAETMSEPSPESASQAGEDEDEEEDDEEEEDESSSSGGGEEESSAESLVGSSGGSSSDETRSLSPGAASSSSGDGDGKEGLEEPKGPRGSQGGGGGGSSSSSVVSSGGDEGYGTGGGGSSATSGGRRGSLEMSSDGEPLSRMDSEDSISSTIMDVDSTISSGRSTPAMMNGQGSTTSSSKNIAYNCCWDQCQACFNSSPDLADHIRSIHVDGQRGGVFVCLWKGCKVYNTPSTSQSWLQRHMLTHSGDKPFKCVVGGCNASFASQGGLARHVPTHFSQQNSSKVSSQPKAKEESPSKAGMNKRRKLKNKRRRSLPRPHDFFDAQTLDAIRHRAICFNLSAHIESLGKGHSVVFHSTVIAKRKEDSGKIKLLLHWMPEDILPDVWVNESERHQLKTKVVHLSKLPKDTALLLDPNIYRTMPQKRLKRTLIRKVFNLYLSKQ
T1 sequence (O75530 whole entry partner): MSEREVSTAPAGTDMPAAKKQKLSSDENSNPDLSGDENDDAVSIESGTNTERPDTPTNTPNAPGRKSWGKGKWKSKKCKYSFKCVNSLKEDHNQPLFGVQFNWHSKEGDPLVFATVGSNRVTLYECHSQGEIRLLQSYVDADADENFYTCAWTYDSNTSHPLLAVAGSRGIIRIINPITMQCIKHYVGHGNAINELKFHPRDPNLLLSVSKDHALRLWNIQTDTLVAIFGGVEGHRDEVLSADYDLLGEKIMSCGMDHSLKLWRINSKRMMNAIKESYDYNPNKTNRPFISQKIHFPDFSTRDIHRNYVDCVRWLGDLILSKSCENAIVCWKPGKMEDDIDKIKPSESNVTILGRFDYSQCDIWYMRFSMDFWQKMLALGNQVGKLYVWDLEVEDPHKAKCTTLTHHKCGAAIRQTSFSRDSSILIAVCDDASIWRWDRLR
T1 sequence (Q09028 whole entry partner): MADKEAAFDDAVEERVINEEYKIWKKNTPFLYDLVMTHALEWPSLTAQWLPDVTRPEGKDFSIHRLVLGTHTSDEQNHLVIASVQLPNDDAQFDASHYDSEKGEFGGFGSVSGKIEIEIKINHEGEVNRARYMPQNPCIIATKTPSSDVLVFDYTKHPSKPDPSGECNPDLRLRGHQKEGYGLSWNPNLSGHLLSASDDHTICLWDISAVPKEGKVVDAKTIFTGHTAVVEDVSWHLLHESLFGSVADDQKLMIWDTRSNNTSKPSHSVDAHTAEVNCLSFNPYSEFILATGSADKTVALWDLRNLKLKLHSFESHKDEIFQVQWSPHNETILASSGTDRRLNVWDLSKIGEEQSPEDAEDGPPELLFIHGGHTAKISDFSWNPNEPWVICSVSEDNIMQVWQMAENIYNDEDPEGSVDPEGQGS
T1 sequence (Q15022 whole entry partner): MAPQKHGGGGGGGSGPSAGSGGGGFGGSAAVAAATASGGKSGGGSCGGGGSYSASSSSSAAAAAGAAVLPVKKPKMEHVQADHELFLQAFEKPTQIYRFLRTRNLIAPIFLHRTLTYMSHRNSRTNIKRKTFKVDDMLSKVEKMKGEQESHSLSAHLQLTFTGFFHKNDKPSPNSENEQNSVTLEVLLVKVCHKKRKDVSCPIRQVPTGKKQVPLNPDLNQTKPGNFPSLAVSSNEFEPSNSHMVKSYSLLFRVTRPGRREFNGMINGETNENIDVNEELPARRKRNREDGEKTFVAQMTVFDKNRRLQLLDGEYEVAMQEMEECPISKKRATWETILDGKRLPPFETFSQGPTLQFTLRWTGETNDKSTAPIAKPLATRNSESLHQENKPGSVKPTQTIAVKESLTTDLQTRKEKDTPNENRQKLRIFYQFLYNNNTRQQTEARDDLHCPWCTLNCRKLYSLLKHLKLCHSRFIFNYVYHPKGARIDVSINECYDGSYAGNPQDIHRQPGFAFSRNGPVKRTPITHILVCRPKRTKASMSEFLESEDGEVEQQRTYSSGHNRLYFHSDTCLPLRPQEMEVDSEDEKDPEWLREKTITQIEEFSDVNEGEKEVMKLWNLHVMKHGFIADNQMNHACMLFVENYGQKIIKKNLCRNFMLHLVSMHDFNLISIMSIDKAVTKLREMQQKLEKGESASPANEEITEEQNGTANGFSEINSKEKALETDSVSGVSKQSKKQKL

Regarding `COc1cc(C)[nH]c(=O)c1CN1CCn2ccc3cc(-c4c(C)noc4C)c(Cl)c(c32)C1=O` [Compound 1, 10-chloro-9-(3,5-dimethylisoxazol-4-yl)-2-((4-methoxy-6-methyl-2-oxo-1,2-dihydropyridin-3-yl)methyl)-3,4-dihydro-[1,4]diazepino[6,7,1-HI]indol-1(2H)-one], the figures for the negative-log IC50 (pIC50) in assay [1] and in assay [2] were 7.28 and 8.42, respectively.
`CCN(c1cc2ccn3c2c(c1Cl)C(=O)N(Cc1c(OC)cc(C)[nH]c1=O)CC3)C1COC1` [Compound 2, 10-chloro-9-(ethyl(oxetan-3-yl)amino)-2-((4-methoxy-6-methyl-2-oxo-1,2-dihydropyridin-3-yl)methyl)-3,4-dihydro-[1,4]diazepino[6,7,1-HI]indol-1(2H)-one]: the pIC50 in assay [3] was 8.42.
On to `COc1cc(C)[nH]c(=O)c1CN1CCN2CCc3cc(-c4c(C)noc4C)c(Cl)c(c32)C1=O` [Compound 3, 10-chloro-9-(3,5-dimethylisoxazol-4-yl)-2-((4-methoxy-6-methyl-2-oxo-1,2-dihydropyridin-3-yl)methyl)-3,4,6,7-tetrahydro-[1,4]diazepino[6,7,1-HI]indol-1(2H)-one], for which the pIC50 in assay [3] was 7.70.
Same read-out and setting: under `COc1cc(C)[nH]c(=O)c1CN1CCn2ccc3cc(-c4c(C)nn(C)c4C)c(Cl)c(c32)C1=O` [Compound 4, 10-chloro-2-((4-methoxy-6-methyl-2-oxo-1,2-dihydropyridin-3-yl)methyl)-9-(1,3,5-trimethyl-1H-pyrazol-4-yl)-3,4-dihydro-[1,4]diazepino[6,7,1-HI]indol-1(2H)-one] stands 5.60; under `COc1cc(C)[nH]c(=O)c1CN1CCn2ccc3cc(-c4c(C)cnn4C)c(Cl)c(c32)C1=O` [Compound 5, 10-chloro-9-(1,4-dimethyl-1H-pyrazol-5-yl)-2-((4-methoxy-6-methyl-2-oxo-1,2-dihydropyridin-3-yl)methyl)-3,4-dihydro-[1,4]diazepino[6,7,1-HI]indol-1(2H)-one], 6.60.
On the same count and under the same terms, the figure for `COc1cc(C)[nH]c(=O)c1CN1CCn2cc(Cl)c3cc(-c4c(C)cnn4C)c(Cl)c(c32)C1=O` [Compound 6, 7,10-dichloro-9-(1,4-dimethyl-1H-pyrazol-5-yl)-2-((4-methoxy-6-methyl-2-oxo-1,2-dihydropyridin-3-yl)methyl)-3,4-dihydro-[1,4]diazepino[6,7,1-HI]indol-1(2H)-one] is 5.95; for `COc1cc(C)[nH]c(=O)c1CN1CCn2ccc3cc(-c4c(C)nn(CCO)c4C)c(Cl)c(c32)C1=O` [Compound 7, 10-chloro-9-(1-(2-hydroxyethyl)-3,5-dimethyl-1H-pyrazol-4-yl)-2-((4-methoxy-6-methyl-2-oxo-1,2-dihydropyridin-3-yl)methyl)-3,4-dihydro-[1,4]diazepino[6,7,1-HI]indol-1(2H)-one] it is 5.44.
Still for that read-out and setting: under `COc1cc(C)[nH]c(=O)c1CN1CCn2ccc3cc(-c4c(C)nn(CC#N)c4C)c(Cl)c(c32)C1=O` [Compound 8, 2-(4-(10-chloro-2-((4-methoxy-6-methyl-2-oxo-1,2-dihydropyridin-3-yl)methyl)-1-oxo-1,2,3,4-tetrahydro-[1,4]diazepino[6,7,1-HI]indol-9-yl)-3,5-dimethyl-1H-pyrazol-1-yl)acetonitrile] stands 5.96.
For the compound `COc1cc(C)[nH]c(=O)c1CN1CCn2ccc3cc(C(OC)C4COC4)c(Cl)c(c32)C1=O` (stereo not shown) [Compound 9, 10-chloro-9-(methoxy(oxetan-3-yl)methyl)-2-((4-methoxy-6-methyl-2-oxo-1,2-dihydropyridin-3-yl)methyl)-3,4-dihydro-[1,4]diazepino[6,7,1-HI]indol-1(2H)-one], the pIC50 in assay [3] was 7.67.
For `COc1cc(C)[nH]c(=O)c1CN1CCn2ccc3cc([C@H](OC)C4COC4)c(Cl)c(c32)C1=O` [Compound 10, (R)-10-chloro-9-(methoxy(oxetan-3-yl)methyl)-2-((4-methoxy-6-methyl-2-oxo-1,2-dihydropyridin-3-yl)methyl)-3,4-dihydro-[1,4]diazepino[6,7,1-HI]indol-1(2H)-one], the pIC50 is 7.94 in assay [1], 8.14 in assay [3] and 8.62 in assay [2].
The like results for `COc1cc(C)[nH]c(=O)c1CN1CCn2ccc3cc([C@@H](OC)C4COC4)c(Cl)c(c32)C1=O` [Compound 11, (S)-10-chloro-9-(methoxy(oxetan-3-yl)methyl)-2-((4-methoxy-6-methyl-2-oxo-1,2-dihydropyridin-3-yl)methyl)-3,4-dihydro-[1,4]diazepino[6,7,1-HI]indol-1(2H)-one] were, in that order, 6.03, 6.25 and 6.98.
Take `COc1cc(C)[nH]c(=O)c1CN1CCn2ncc3cc(-c4c(C)noc4C)c(Cl)c(c32)C1=O` [Compound 12, 5-chloro-4-(3,5-dimethylisoxazol-4-yl)-7-((4-methoxy-6-methyl-2-oxo-1,2-dihydropyridin-3-yl)methyl)-8,9-dihydro-[1,4]diazepino[6,7,1-HI]indazol-6(7H)-one]: the pIC50 in assay [1] is 7.06; in assay [2], 7.96.
For `COc1cc(C)[nH]c(=O)c1CN1CCn2cnc3cc(-c4c(C)noc4C)c(Cl)c(c32)C1=O` [Compound 13, 5-chloro-4-(3,5-dimethylisoxazol-4-yl)-7-((4-methoxy-6-methyl-2-oxo-1,2-dihydropyridin-3-yl)methyl)-8,9-dihydro-2,7,9a-triazabenzo[cd]azulen-6(7H)-one], the negative logarithm of the IC50 (pIC50) in assay [1] is 6.44; in assay [2], 7.25.
`COc1cc(C)[nH]c(=O)c1CN1CCn2ccc3cc(C(OC)C4COC4)c(C)c(c32)C1=O` (stereo not shown) [Compound 14, 9-(methoxy(oxetan-3-yl)methyl)-2-((4-methoxy-6-methyl-2-oxo-1,2-dihydropyridin-3-yl)methyl)-10-methyl-3,4-dihydro-[1,4]diazepino[6,7,1-HI]indol-1(2H)-one]: the pIC50 in assay [1] was 7.54; in assay [3], 7.93; in assay [2] it was 8.32.
Take `COc1cc(C)[nH]c(=O)c1CN1CCn2ccc3cc(-c4c(C)noc4C)c(C)c(c32)C1=O` [Compound 15, 9-(3,5-dimethylisoxazol-4-yl)-2-((4-methoxy-6-methyl-2-oxo-1,2-dihydropyridin-3-yl)methyl)-10-methyl-3,4-dihydro-[1,4]diazepino[6,7,1-HI]indol-1(2H)-one]: the negative logarithm of the IC50 (pIC50) in assay [1] is 7.30; in assay [3] it was 7.75; in assay [2] it was 8.92.
For `COc1cc(C)[nH]c(=O)c1CN1CC(C)n2ccc3cc(-c4c(C)noc4C)c(Cl)c(c32)C1=O` (stereo not shown) [Compound 16, 10-chloro-9-(3,5-dimethylisoxazol-4-yl)-2-((4-methoxy-6-methyl-2-oxo-1,2-dihydropyridin-3-yl)methyl)-4-methyl-3,4-dihydro-[1,4]diazepino[6,7,1-HI]indol-1(2H)-one], the pIC50 was 6.80 in assay [1] and 8.34 in assay [2].
Turning to `COc1cc(C)[nH]c(=O)c1CN1C(=O)c2c(Cl)c(-c3c(C)noc3C)cc3ccn(c23)CC1C` (stereo not shown) [Compound 17, 10-chloro-9-(3,5-dimethylisoxazol-4-yl)-2-((4-methoxy-6-methyl-2-oxo-1,2-dihydropyridin-3-yl)methyl)-3-methyl-3,4-dihydro-[1,4]diazepino[6,7,1-HI]indol-1(2H)-one], the pIC50 is 7.46 in assay [1], 7.85 in assay [3] and 8.92 in assay [2].

What is called pIC50 is the negative decadic logarithm of the IC50, by convention in mol/L.

(Values after patent US12479846B2, “EZH2 inhibitor and use thereof” (PHARMABLOCK SCIENCES (NANJING) , INC., priority 2019, dated 2025).)
